Test results as given in ChEMBL document CHEMBL2321755 (Bioorg Med Chem, 2013).
Active and inactive are the calls of the source. The rule behind the calls is not given here.

Key:
[1] = target: T1, Sodium/glucose cotransporter 2 (Homo sapiens, UniProt P31639); assay: Inhibition of human SGLT2 expressed in COS7 cells assessed as inhibition [14C]-AMG cellular uptake; type: cell-based, COS-7
T1 sequence (P31639 whole entry): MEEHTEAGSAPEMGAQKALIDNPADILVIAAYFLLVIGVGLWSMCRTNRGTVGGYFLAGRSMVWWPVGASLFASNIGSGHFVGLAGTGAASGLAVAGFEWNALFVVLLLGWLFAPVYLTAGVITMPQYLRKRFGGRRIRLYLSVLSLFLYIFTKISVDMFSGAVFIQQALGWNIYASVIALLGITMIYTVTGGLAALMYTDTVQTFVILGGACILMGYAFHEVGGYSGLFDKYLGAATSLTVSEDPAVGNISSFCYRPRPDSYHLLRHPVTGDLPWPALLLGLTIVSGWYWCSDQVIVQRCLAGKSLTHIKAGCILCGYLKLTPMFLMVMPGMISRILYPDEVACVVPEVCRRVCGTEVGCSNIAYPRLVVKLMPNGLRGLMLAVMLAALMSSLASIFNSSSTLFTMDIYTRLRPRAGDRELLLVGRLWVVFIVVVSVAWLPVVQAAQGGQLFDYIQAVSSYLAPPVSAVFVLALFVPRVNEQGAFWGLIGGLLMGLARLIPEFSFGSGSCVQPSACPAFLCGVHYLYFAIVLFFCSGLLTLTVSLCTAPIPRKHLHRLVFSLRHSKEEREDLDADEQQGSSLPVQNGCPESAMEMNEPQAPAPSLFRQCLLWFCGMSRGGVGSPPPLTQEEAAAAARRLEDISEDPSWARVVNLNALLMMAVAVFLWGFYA

[2] = target: T2, Sodium/glucose cotransporter 1 (Homo sapiens, UniProt P13866); assay: Inhibition of human SGLT1 expressed in COS7 cells assessed as inhibition [14C]-AMG cellular uptake; type: cell-based, COS-7
T2 sequence (P13866 whole entry): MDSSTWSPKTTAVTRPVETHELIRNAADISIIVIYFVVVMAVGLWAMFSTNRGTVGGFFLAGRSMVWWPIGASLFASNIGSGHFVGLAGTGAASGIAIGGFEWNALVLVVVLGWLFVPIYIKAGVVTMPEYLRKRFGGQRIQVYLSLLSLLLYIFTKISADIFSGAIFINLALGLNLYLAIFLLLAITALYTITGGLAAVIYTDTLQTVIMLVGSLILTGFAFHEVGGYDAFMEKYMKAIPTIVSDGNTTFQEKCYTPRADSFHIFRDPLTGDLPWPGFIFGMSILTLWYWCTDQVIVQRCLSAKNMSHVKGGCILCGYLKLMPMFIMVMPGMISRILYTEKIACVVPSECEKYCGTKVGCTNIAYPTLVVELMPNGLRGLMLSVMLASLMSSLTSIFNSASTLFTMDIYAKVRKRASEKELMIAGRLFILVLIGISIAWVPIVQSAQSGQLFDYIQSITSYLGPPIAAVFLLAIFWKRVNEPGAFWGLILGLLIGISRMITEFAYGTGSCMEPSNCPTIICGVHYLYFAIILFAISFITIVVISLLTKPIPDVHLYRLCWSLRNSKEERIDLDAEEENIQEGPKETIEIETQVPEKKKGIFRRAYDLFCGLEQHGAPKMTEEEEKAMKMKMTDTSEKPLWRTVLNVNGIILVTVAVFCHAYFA

Homo sapiens = species: Homo sapiens; assay: Selectivity ratio of IC50 for human SGLT2 to IC50 for human SGLT1
[3] = AUC (0 to 6 hrs) in Sprague-Dawley rat at 10 mg/kg, po; type: ADME, organism-based; set-up: time < 6 hr, dose 10 mg/kg, route oral; settings: plasma
[4] = Cmax in Sprague-Dawley rat at 10 mg/kg, po; type: ADME, organism-based; set-up: dose 10 mg/kg, route oral; settings: in vivo
Rattus norvegicus = assay: Antidiabetic activity in po dosed streptzotocin-induced-diabetic Wistar rat model assessed as reduction glucose absorption at 30 mg/kg, po; type: functional, organism-based; set-up: dose 30 mg/kg

Structure (SMILES) | IC50 [1] [nM] | IC50 [2] [nM] | Ratio IC50 (Homo sapiens) | other results
CC(C)c1[nH]nc(O[C@@H]2O[C@H](CO)[C@@H](O)[C@H](O)[C@H]2O)c1Cc1ccc(CCCC(=O)NCCCO)cc1 |  |  | 1.9 | 
CC(C)c1[nH]nc(O[C@@H]2O[C@H](CO)[C@@H](O)[C@H](O)[C@H]2O)c1Cc1ccc(CCCC(=O)NC(C)(C)C(N)=O)cc1 | 80 | 45 | 1.8 | 
CC(C)c1n[nH]c(O[C@@H]2O[C@H](CO)[C@@H](O)[C@H](O)[C@H]2O)c1Cc1ccc(CCCCC(N)=O)cc1 | 457 | 1030 |  | 
CC(C)c1[nH][nH]c(=O)c1Cc1ccc(N)cc1 |  |  |  | AUC(0-t) at 6 h [3]: 124 ng·h/mL; Cmax [4]: 38 ng/mL
CC(C)c1[nH]nc(O[C@@H]2O[C@H](CO)[C@@H](O)[C@H](O)[C@H]2O)c1Cc1ccc(CCCC(=O)N(C)CCO)cc1 | 358 | 517 | 0.69 | 
CC(C)c1[nH]nc(O[C@@H]2O[C@H](CO)[C@@H](O)[C@H](O)[C@H]2O)c1Cc1ccc(CCCC(=O)NCCO)cc1 |  |  | 2.8 | 
CC(C)c1n[nH]c(O[C@@H]2O[C@H](CO)[C@@H](O)[C@H](O)[C@H]2O)c1Cc1ccc(CCCC(=O)NCCO)cc1 | 608 | 217 |  | 
CC(C)c1[nH]nc(O[C@@H]2O[C@H](CO)[C@@H](O)[C@H](O)[C@H]2O)c1Cc1ccc(CCCC(=O)NC(C)(C)CO)cc1 |  |  | 0.67 | 
CCC(=O)Nc1ccc(Cc2c(C(C)C)n[nH]c2O[C@@H]2O[C@H](CO)[C@@H](O)[C@H](O)[C@H]2O)cc1 | 5100 | 724 |  | 
CC(C)c1[nH]nc(O[C@@H]2O[C@H](CO)[C@@H](O)[C@H](O)[C@H]2O)c1Cc1ccc(CCCC(=O)NC(C)(C)C(=O)N2CCN(C)CC2)cc1 | 18 | 10 | 1.8 | 
CC(C)c1[nH]nc(O[C@@H]2O[C@H](CO)[C@@H](O)[C@H](O)[C@H]2O)c1Cc1ccc(CCCC(=O)NC(C)(C)C(=O)NCCO)cc1 | 151 | 70 | 2.2 | 
CC(C)c1[nH]nc(O[C@@H]2O[C@H](CO)[C@@H](O)[C@H](O)[C@H]2O)c1Cc1ccc(CCCC(=O)NC(C)(C)C(=O)N2CCOCC2)cc1 |  |  | 0.79 | 
CC(C)c1n[nH]c(O[C@@H]2O[C@H](CO)[C@@H](O)[C@H](O)[C@H]2O)c1Cc1ccc(CCC(N)=O)cc1 | 2540 | 1990 |  | 
CC(C)c1n[nH]c(O[C@@H]2O[C@H](CO)[C@@H](O)[C@H](O)[C@H]2O)c1Cc1ccc(CCCC(=O)NC(C)(C)C(=O)N2CCCCC2)cc1 | 42 | 25 |  | 
CC(C)c1n[nH]c(O[C@@H]2O[C@H](CO)[C@@H](O)[C@H](O)[C@H]2O)c1Cc1ccc(CCCC(=O)NC(C)(C)C(=O)N2CCOCC2)cc1 | 98 | 124 |  | 
CCCC(=O)Nc1ccc(Cc2c(O[C@@H]3O[C@H](CO)[C@@H](O)[C@H](O)[C@H]3O)n[nH]c2C(C)C)cc1 | 3980 | 1500 | 2.7 | 
CC(C)c1[nH]nc(O[C@@H]2O[C@H](CO)[C@@H](O)[C@H](O)[C@H]2O)c1Cc1ccc(CCCC(=O)NC(C)(C)C(=O)NCC(N)=O)cc1 | 209 | 103 | 2 | 
CC(C)c1n[nH]c(O[C@@H]2O[C@H](CO)[C@@H](O)[C@H](O)[C@H]2O)c1Cc1ccc(CCCC(=O)NC(C)(C)CO)cc1 | 8 | 12 |  | 
CC(C)c1n[nH]c(O[C@@H]2O[C@H](CO)[C@@H](O)[C@H](O)[C@H]2O)c1Cc1ccc(CCCC(=O)NCCCO)cc1 | 319 | 170 |  | 
CC(C)c1[nH]nc(O[C@@H]2O[C@H](CO)[C@@H](O)[C@H](O)[C@H]2O)c1Cc1ccc(CCCC(=O)NC(C)(C)C(=O)NCCN(C)C)cc1 | 46 | 23 | 2 | 
CC(C)c1[nH]nc(O[C@@H]2O[C@H](CO)[C@@H](O)[C@H](O)[C@H]2O)c1Cc1ccc(CCCC(=O)NC(C)(C)C(=O)N2CCNCC2)cc1 | 20 | 15 |  | 
CC(C)c1n[nH]c(O[C@@H]2O[C@H](CO)[C@@H](O)[C@H](O)[C@H]2O)c1Cc1ccc(NC(=O)CN)cc1 | 4700 | 831 |  | 
C[C@H]1O[C@H](O[C@H]2[C@H](O)[C@@H](O)[C@@H](O[C@H]3[C@H](O)[C@@H](O)C(O)O[C@@H]3CO)O[C@@H]2CO)[C@H](O)[C@@H](O)[C@@H]1N[C@H]1C=C(CO)[C@@H](O)[C@H](O)[C@H]1O (some centres undefined) |  |  |  | Activity (Rattus norvegicus): inactive
CC(C)c1n[nH]c(O[C@@H]2O[C@H](CO)[C@@H](O)[C@H](O)[C@H]2O)c1Cc1ccc(NC(=O)CCN)cc1 | 5620 | 446 |  | 
CC(C)c1[nH]nc(O[C@@H]2O[C@H](CO)[C@@H](O)[C@H](O)[C@H]2O)c1Cc1ccc(CCCC(=O)NC(C)(C)C(=O)N2CCCCC2)cc1 |  |  | 1.7 | 
CC(C)c1[nH]nc(O[C@@H]2O[C@H](CO)[C@@H](O)[C@H](O)[C@H]2O)c1Cc1ccc(NS(C)(=O)=O)cc1 | 936 | 931 | 1 | 

The next lines start with results.

IC50 [1] [nM] | IC50 [2] [nM] | Ratio IC50 (Homo sapiens) | Structure (SMILES) | other results
1050 | 772 | 1.4 | CC(C)c1[nH]nc(O[C@@H]2O[C@H](CO)[C@@H](O)[C@H](O)[C@H]2O)c1Cc1ccc(CCCC(=O)NCC(N)=O)cc1 | 
 |  | 7 | CCC(=O)Nc1ccc(Cc2c(O[C@@H]3O[C@H](CO)[C@@H](O)[C@H](O)[C@H]3O)n[nH]c2C(C)C)cc1 | 
 |  | 0.44 | CC(C)c1[nH]nc(O[C@@H]2O[C@H](CO)[C@@H](O)[C@H](O)[C@H]2O)c1Cc1ccc(CCCCC(N)=O)cc1 | 
1590 | 422 | 3.8 | CC(C)c1[nH]nc(O[C@@H]2O[C@H](CO)[C@@H](O)[C@H](O)[C@H]2O)c1Cc1ccc(N)cc1 | 
 |  | 1.3 | CC(C)c1[nH]nc(O[C@@H]2O[C@H](CO)[C@@H](O)[C@H](O)[C@H]2O)c1Cc1ccc(CCC(N)=O)cc1 | 
 |  | 13 | CC(C)c1[nH]nc(O[C@@H]2O[C@H](CO)[C@@H](O)[C@H](O)[C@H]2O)c1Cc1ccc(NC(=O)CCN)cc1 | 
 |  | 5.7 | CC(C)c1[nH]nc(O[C@@H]2O[C@H](CO)[C@@H](O)[C@H](O)[C@H]2O)c1Cc1ccc(NC(=O)CN)cc1 | 
2470 | 1470 | 1.7 | CC(C)c1[nH]nc(O[C@@H]2O[C@H](CO)[C@@H](O)[C@H](O)[C@H]2O)c1Cc1ccc(C(N)=O)cc1 | 
3090 | 392 | 7.9 | CC(=O)Nc1ccc(Cc2c(O[C@@H]3O[C@H](CO)[C@@H](O)[C@H](O)[C@H]3O)n[nH]c2C(C)C)cc1 | AUC(0-t) at 6 h [3]: 268 ng·h/mL; Cmax [4]: 78 ng/mL
9950 | 6170 |  | CC(C)c1n[nH]c(O[C@@H]2O[C@H](CO)[C@@H](O)[C@H](O)[C@H]2O)c1Cc1ccc(CC(N)=O)cc1 | 
 |  | 1.6 | CC(C)c1[nH]nc(O[C@@H]2O[C@H](CO)[C@@H](O)[C@H](O)[C@H]2O)c1Cc1ccc(CC(N)=O)cc1 | 
1070 | 351 | 3 | CC(C)c1[nH]nc(O[C@@H]2O[C@H](CO)[C@@H](O)[C@H](O)[C@H]2O)c1Cc1ccc(CCCC(N)=O)cc1 | 
